# Reference: patent publication US12691101B2, “Compound and method for preventing or treating of respiratory diseases comprising the same as an active ingredient” (YONSEI UNIVERSITY, UNIVERSITY - INDUSTRY FOUNDATION (UIF), priority 2019, dated 2026)
# Biological target: T1, human wild-type (WT)-pendrin (Homo sapiens, UniProt O43511)
# T1 construct: expressed in transfected cells
# T1 sequence (O43511 1-780): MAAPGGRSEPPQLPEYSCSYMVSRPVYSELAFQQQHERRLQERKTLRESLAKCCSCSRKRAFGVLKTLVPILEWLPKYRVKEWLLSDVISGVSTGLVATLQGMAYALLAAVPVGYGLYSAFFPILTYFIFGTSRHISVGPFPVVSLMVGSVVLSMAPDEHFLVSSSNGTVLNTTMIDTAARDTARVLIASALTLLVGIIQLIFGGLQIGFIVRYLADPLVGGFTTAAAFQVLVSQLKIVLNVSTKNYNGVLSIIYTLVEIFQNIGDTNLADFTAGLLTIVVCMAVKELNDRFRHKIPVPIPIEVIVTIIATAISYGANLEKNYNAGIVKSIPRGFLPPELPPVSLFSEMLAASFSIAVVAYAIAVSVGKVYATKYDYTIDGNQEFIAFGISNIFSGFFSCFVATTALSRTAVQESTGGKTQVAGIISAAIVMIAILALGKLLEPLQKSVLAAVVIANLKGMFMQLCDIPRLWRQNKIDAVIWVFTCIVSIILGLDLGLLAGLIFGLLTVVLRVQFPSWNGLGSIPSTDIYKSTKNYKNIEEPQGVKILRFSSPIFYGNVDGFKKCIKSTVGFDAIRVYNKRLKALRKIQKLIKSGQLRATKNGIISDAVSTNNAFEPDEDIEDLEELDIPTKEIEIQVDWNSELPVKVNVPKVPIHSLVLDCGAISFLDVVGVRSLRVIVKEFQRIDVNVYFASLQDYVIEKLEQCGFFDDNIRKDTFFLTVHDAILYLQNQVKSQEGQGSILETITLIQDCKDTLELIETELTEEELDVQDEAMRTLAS
# Assay: Pendrin-mediated Cl^−/I^− exchange activity, YFP fluorescence in CHO-K1 cells
# Assay type: cell-based
# Conditions: 30 μM
row,Compound,Pendrin inhibitory activity at 30 μM (%)
1,"COC(=O)C(=Cc1ccc[nH]1)NC(=O)c1ccc(C(C)(C)C)cc1 [G23, Methyl-2-(4-(tert-butyl)benzamido)-3-(1H-pyrrol-2-yl)acrylate]",2.7

# Same assay, conditions: CHO-K1, 30 μM; read-out: Pendrin inhibitory activity at 30 μM (%)
row,Compound,inhibition at 30 µM [%]
1,"CCCCCc1ccc(C(=O)NC(=Cc2ccco2)C(=O)O)cc1 [G35, 3-(Furan-2-yl)-2-(4-pentylbenzamido)acrylate]",94
2,"CCCCCc1ccc(C(=O)NC(=Cc2cccs2)C(=O)O)cc1 [G40, 2-(4-Pentylbenzamido)-3-(thiophen-2-yl)acrylate]",88.6
3,"COc1ccccc1C1=NC(=Cc2ccc(N(C)C)s2)C(=O)O1 [F114, 4-((5-(Dimethylamino)thiophen-2-yl)methylene)-2-(2-methoxyphenyl)oxazol-5(4H)-one]",3.9
4,"CC(=O)Oc1ccc(C2=NC(=Cc3cccs3)C(=O)O2)cc1 [F90, 4-(5-Oxo-4-(thiophen-2-ylmethylene)-4,5-dihydrooxazol-2-yl)phenylacetate]",3.3
5,"CCCCOc1ccc(C(=O)NC(=Cc2cccs2)C(=O)O)cc1 [G36, 2-(4-Butoxybenzamido)-3-(thiophen-2-yl)acrylate]",4.8
6,"CCCCOc1ccc(C2=NC(=Cc3ccc[nH]3)C(=O)O2)cc1 [F138, 4-((1H-pyrrol-2-yl)methylene)-2-(4-butoxyphenyl)oxazol-5 (4H)-one]",2.7
7,"CC(C)(C)c1ccc(C(=O)Oc2ccc(C=C3N=C(c4ccccc4Cl)OC3=O)cc2)cc1 [F67, 4-((2-(2-Chlorophenyl)-5-oxooxazol-4(5H)-ylidene)methyl)phenyl4-(tert-butyl)benzoate]",3.2
8,"CC(C)(C)c1ccc(C2=NC(=Cc3ccc(OCc4ccccc4)cc3)C(=O)O2)cc1 [F64, 4-(4-(Benzyloxy)benzylidene)-2-(4-(tert-butyl)phenyl)oxazol-5 (4H)-one]",2.8
9,"CC(C)(C)c1ccc(C2=NC(=Cc3cc4ccccc4[nH]3)C(=O)O2)cc1 [F140, 4-((1H-indol-2-yl)methylene)-2-(4-(tert-butyl)phenyl)oxazol-5(4H)-one]",3.3
10,"CCCc1ccc(C2=NC(=Cc3ccc[nH]3)C(=O)O2)cc1 [F143, 4-((1H-pyrrol-2-yl)methylene)-2-(4-propylphenyl)oxazol-5(4H)-one]",87.4
11,"O=C(O)C(=Cc1ccsc1)NC(=O)c1ccc2ccccc2c1 [G24, 2-(2-Naphthamido)-3-(thiophen-3-yl)acrylate]",1.9
12,"COC(=O)c1ccc(C2=NC(=Cc3cccs3)C(=O)O2)cc1 [F7, Methyl 4-(5-oxo-4-(thiophen-2-ylmethylene)-4,5-dihydrooxazol-2-yl)benzoate]",2.8
13,"O=C1OC(c2ccc3ccccc3c2)=NC1=Cc1cccs1 [F52, 2-(Naphthalen-2-yl)-4-(thiophen-2-ylmethylene)oxazol-5(4H)-one]",4.1
14,"CCN(CC)S(=O)(=O)c1ccc(C2=N/C(=C3\C=CC=CN3C)C(=O)O2)cc1 [F127, N,N-diethyl-4-(4-(1-methylpyridin-2(1H)-ylidene)-5-oxo-4,5-dihydrooxazol-2-yl)benzenesulfonamide]",3.6
15,"Cc1ccc(C2=NC(=Cc3cn(S(=O)(=O)N(C)C)c4ccccc34)C(=O)O2)cc1 [F76, N,N-Dimethyl-3-((5-oxo-2-(p-tolyl)oxazol-4(5H)-ylidene)methyl)-1H-indole-1-sulfonamide]",1.9
16,"CC(C)(C)c1ccc(C2=NC(=Cc3ccnc4ccccc34)C(=O)O2)cc1 [F13, 2-(4-(tert-butyl)phenyl)-4-(quinolin-4-ylmethylene)oxazol-5 (4H)-one]",3.8

# Same assay, conditions: CHO-K1; read-out: Pendrin inhibitory activity at 30 μM (%)
row,Compound,inhibition at 30 µM [%]
1,"CC(=O)Nc1ccc(C2=NC(=Cc3ccc(N(C)CCCl)cc3)C(=O)O2)cc1 [F86, N-(4-(4-(4-((2-chloroethyl)(methyl)amino)benzylidene)-5-oxo-4,5-dihydrooxazol-2-yl)phenyl)acetamide]",3.3

# Same assay, conditions: compounds showing pendrin inhibitory activity of 50% or more at 30 μM; read-out: IC50
row,Compound,IC50 [µM]
1,"CCCCCc1ccc(C(=O)NC(=Cc2ccco2)C(=O)O)cc1 [G35, 3-(Furan-2-yl)-2-(4-pentylbenzamido)acrylate]",6.1 ± 0.88
2,"CCCCCc1ccc(C(=O)NC(=Cc2cccs2)C(=O)O)cc1 [G40, 2-(4-Pentylbenzamido)-3-(thiophen-2-yl)acrylate]",13.4 ± 1.69
3,"CCCc1ccc(C2=NC(=Cc3ccc[nH]3)C(=O)O2)cc1 [F143, 4-((1H-pyrrol-2-yl)methylene)-2-(4-propylphenyl)oxazol-5(4H)-one]",5.3 ± 0.69
